Measured values as given in EP4818171A1 (Apeiron Therapeutics (Hong Kong) Ltd., priority 2024, dated 2025).
Where two headings read alike, the source gives them in different places.

Columns and labels:
HCT-116 wild-type cells = test: Inhibitory activity on proliferation of HCT-116 wild-type cells (Cell-Titer Glo); assay type: cell-based; settings: 8 d incubation
Method: Cell culture: HCT-116 wild-type cells were cultured with a RPMI-1640 medium containing 10% fetal bovine serum+1% penicillin-streptomycin at 37°C in 5% carbon dioxide. Only cells in the logarithmic growth phase could be used for the test.
Test of cell proliferation activity: Cell-Titer Glo kit was used to test the proliferation inhibitory activity of the compound on HCT-116 wild-type cells. The cell concentration was adjusted, rendering that cells were inoculated into a 384-well plate at 40 µL per well and incubated overnight at 37°C and 5% carbon dioxide. 40 nL of the compound was added to each well to reach a final concentration of 0-10,000 nM (starting concentration 10,000 nM, 2-fold dilution, 10 points), and the cell plate with 0.1% DMSO content was incubated at 37°C and 5% carbon dioxide for 8 d. 40 µL of Cell-Titer Glo reagent was added to test cell viability.

[1] = tested on: LU99 MTAP overexpressing cells; test: Inhibitory activity on proliferation of LU99 MTAP overexpressing cells (Cell-Titer Glo); assay type: cell-based; settings: 6 d incubation
Method: Materials and cells: LU99 MTAP overexpressing cell line was purchased from Kyinno Biotechnology (China); cell culture medium and fetal bovine serum were purchased from Thermo Fisher Scientific (USA); 384-well plates were purchased from PerkinElmer (USA); Cell-Titer Glo kits were purchased from Promega (USA).
Cell culture: LU99 MTAP overexpressing cells were cultured with medium containing 10% fetal bovine serum at 37°C in 5% carbon dioxide. Only cells in the logarithmic growth phase could be used for the test.
Test of inhibitory activity on cell proliferation: The Cell-Titer Glo kit was used to test the proliferation inhibitory activity of the compounds on LU99 MTAP overexpressing cells. The cell concentration was adjusted, rendering that cells were inoculated into a 384-well plate at 40 µL per well and incubated overnight at 37°C and 5% carbon dioxide. 40 nL of the compound was added to each well to reach a final concentration of 0-10,000 nM (starting concentration 10,000 nM, 2.5-fold dilution, 10 points), and the cell plate with 0.2% DMSO content was incubated at 37°C and 5% carbon dioxide for 6 d. 40 µL of Cell-Titer Glo reagent was added to test cell viability.

[2] = tested on: LU99 MTAP(-/-)deleted cells; test: Inhibitory activity on proliferation of LU99 MTAP(-/-)deleted cells (Cell-Titer Glo)
Method: Materials and cells: LU99 MTAP deleted cell line was purchased from Kyinno Biotechnology (China); cell culture medium and fetal bovine serum were purchased from Thermo Fisher Scientific (USA); 384-well plates were purchased from PerkinElmer (USA); Cell-Titer Glo kits were purchased from Promega (USA). Cell culture: LU99 MTAP(-/-)deleted cells were cultured with medium containing 10% fetal bovine serum at 37°C in 5% carbon dioxide. Only cells in the logarithmic growth phase could be used for the test.
Test of inhibitory activity on cell proliferation: The Cell-Titer Glo kit was used to test the proliferation inhibitory activity of the compounds on LU99 MTAP(-/-)deleted cells. The cell concentration was adjusted, rendering that cells were inoculated into a 384-well plate at 40 µL per well and incubated overnight at 37°C and 5% carbon dioxide. […] 40 µL of Cell-Titer Glo reagent was added to test cell viability.

[3] = tested on: HCT-116 MTAP(-/-)deleted cells; test: Inhibitory activity on proliferation of HCT-116 MTAP(-/-)deleted cells (Cell-Titer Glo)
Method: Only cells in the logarithmic growth phase could be used for the test. […] The cell concentration was adjusted, rendering that cells were inoculated into a 384-well plate at 40 µL per well and incubated overnight at 37°C and 5% carbon dioxide. 40 nL of the compound was added to each well to reach a final concentration of 0-10,000 nM (starting concentration 10,000 nM, 3-fold dilution, 10 points), and the cell plate with 0.1% DMSO content was incubated at 37°C and 5% carbon dioxide for 8 d. 40 µL of Cell-Titer Glo reagent was added to test cell viability.

[4] = read-out: IC50 (nM) Lu99 MTAP(-/-)Deleted, LU99 MTAP(-/-)deleted cells, 6 d incubation, Cell-Titer Glo
[5] = Homo sapiens, HCT-116, 192 h, read-out: IC50 (nM) HCT-116 MTAP(-/-)deleted
[6] = Homo sapiens, Lu-99, 144 h, read-out: IC50 (nM) Lu99 MTAP(-/-)Deleted, LU99 MTAP(-/-)deleted cells, 6 d incubation, Cell-Titer Glo
[7] = Homo sapiens, HCT-116, 192 h, read-out: IC50 (nM) HCT-116 MTAP(-/-)deleted, HCT-116 MTAP(-/-)deleted cells, 8 d incubation, Cell-Titer Glo

Molecule	IC50 (HCT-116 wild-type cells; Homo sapiens, HCT-116, 192 h) [nM]	IC50 ([1]; Homo sapiens, Lu-99, 144 h) [nM]	IC50 [3, 5] [nM]	IC50 [2, 6] [nM]	also measured
4-amino-N-methyl-N-(7'-(trifluoromethyl)spiro[cyclobutane-1,1'-isochroman]-4'-yl)imidazo[1,5-a]quinoxaline-8-carboxamide [Example 1]	–	–	–	–	IC50 (HCT-116 wild-type cells): 959 nM; IC50 [1]: 652 nM; IC50 [2, 4]: 13.2 nM; IC50 ([3]; read-out: IC50 (nM) HCT-116 MTAP(-/-)deleted, HCT-116 MTAP(-/-)deleted cells, 8 d incubation, Cell-Titer Glo): 10 nM
CN(C(=O)c1ccc2nc(N)c3cncn3c2c1)[C@H]1COC2(CCC2)c2cc(C(F)(F)F)ccc21 (stereo in doubt) [Example 4, (R)-4-amino-N-methyl-N-(7'-(trifluoromethyl)spiro[cyclobutane-1,1'-isochroman]-4'-yl)imidazo[1,5-a]quinoxaline-8-carboxamide]	–	–	–	–	IC50 [1]: 742 nM; IC50 [2, 4]: 1100 nM
CN(C(=O)c1ccc2nc(N)c3cncn3c2c1)[C@H]1COC2(CCC2)c2cc(C(F)(F)F)ccc21 [Example 3, (R)-4-amino-N-methyl-N-(7'-(trifluoromethyl)spiro[cyclobutane-1,1'-isochroman]-4'-yl)imidazo[1,5-a]quinoxaline-8-carboxamide]	636	624	5.1	–	IC50 [2, 4]: 8.3 nM
CN(C(=O)c1ccc2nc(N)c3cncn3c2c1)[C@@H]1COC2(CCC2)c2nc(N3CCOCC3)ccc21 [Example 5, (S)-4-amino-N-methyl-N-(2'-morpholinyl-5',6'-dihydrospiro[cyclobutane-1,8'-pyrano[3,4-b]pyridine]-5'-yl)imidazo[1,5-a]quinoxaline-8-carboxamide]	–	2360	–	961	–
CN(C(=O)c1ccc2nc(N)c3cncn3c2c1)C1COC2(CCC2)c2cc(C(F)(F)F)ccc21 (stereo not drawn) [Example 7, 4-Amino-N-methyl-N-(7'-(trifluoromethyl)spiro[cyclobutane-1,1'-isochroman]-4'-yl)imidazo[1,5-a]quinoxaline-8-carboxamide]	636	624	5.1	8.3	–
CN(C(=O)c1ccc2nc(N)c3cncn3c2c1)C1COC2(CC2)c2cc(C(F)(F)F)ccc21 (stereo not drawn) [Example 8, 4-Amino-N-methyl-N-(7'-(trifluoromethyl)spiro[cyclopropane-1,1'-isochroman]-4'-yl)imidazo[1,5-a]quinoxaline-8-carboxamide]	3930	2310	9	13.4	–
CN(C(=O)c1ccc2nc(N)c3cncn3c2c1)C1COC2(CCCC2)c2cc(C(F)(F)F)ccc21 (stereo not drawn) [Example 9, 4-Amino-N-methyl-N-(7'-(trifluoromethyl)spiro[cyclopentane-1,1'-isochroman]-4'-yl)imidazo[1,5-a]quinoxaline-8-carboxamide]	2220	1980	6.5	10.9	–
CN(C(=O)c1ccc2nc(N)c3cncn3c2c1)C1COC2(CCOCC2)c2cc(C(F)(F)F)ccc21 (stereo not drawn) [Example 12, 4-Amino-N-methyl-N-(7'-(trifluoromethyl)-2',3',5',6'-tetrahydrospiro[isochroman-1,4'-pyran]-4-yl)imidazo[1,5-a]quinoxaline-8-carboxamide]	1730	1640	7.64	8.8	–
CN(C(=O)c1cc2c(cc1F)nc(N)c1cncn12)C1COC2(CCC2)c2cc(C(F)(F)F)ccc21 (stereo not drawn) [Example 13, 4-Amino-7-fluoro-N-methyl-N-(7'-(trifluoromethyl)spiro[cyclobutane-1,1'-isochroman]-4'-yl)imidazo[1,5-a]quinoxaline-8-carboxamide]	597	773	5.3	7.8	–
CN(C(=O)c1cc2c(cc1F)nc(N)c1cncn12)[C@@H]1COC2(CCC2)c2cc(C(F)(F)F)ccc21 [Example 15, (S)-4-amino-7-fluoro-N-methyl-N-(7'-(trifluoromethyl)spiro[cyclobutane-1,1'-isochroman]-4'-yl)imidazo[1,5-a]quinoxaline-8-carboxamide]	–	425	–	7.1	–
CN(C(=O)c1cc2c(cc1F)nc(N)c1cncn12)C1COC2(CCOCC2)c2cc(C(F)(F)F)ccc21 (stereo not drawn) [Example 16, 4-Amino-7-fluoro-N-methyl-N-(7-(trifluoromethyl)-2',3',5',6'-tetrahydrospiro[isochroman-1,4'-pyran]-4-yl)imidazo[1,5-a]quinoxaline-8-carboxamide]	1610	1290	5.9	10.8	–
Cn1cc(N(C(=O)c2ccc3nc(N)c4cncn4c3c2)C2COC3(CCC3)c3cc(C(F)(F)F)ccc32)cn1 (stereo not drawn) [Example 17, 4-Amino-N-(1-methyl-1H-pyrazol-4-yl)-N-(7'-(trifluoromethyl)spiro[cyclobutane-1,1'-isochroman]-4'-yl)imidazo[1,5-a]quinoxaline-8-carboxamide]	324	104	5.17	4.5	–
CN(C(=O)c1ccc2nc(N)c3cncn3c2c1)C1COC(C)(C)c2c1ccc1c2OCO1 (stereo not drawn) [Example 18]	–	756	–	99.6	–
Cc1ncc2c(N)nc3cc(F)c(C(=O)N(C)C4COC5(CCOCC5)c5cc(C(F)(F)F)ccc54)cc3n12 (stereo not drawn) [Example 19, 4-Amino-7-fluoro-N,1-dimethyl-N-(7-(trifluoromethyl)-2',3',5',6'-tetrahydrospiro[isochroman-1,4'-pyran]-4-yl)imidazo[1,5-a]quinoxaline-8-carboxamide]	2710	1390	21.7	31.3	–
Cc1ncn2c1c(N)nc1cc(F)c(C(=O)N(C)C3COC4(CCOCC4)c4cc(C(F)(F)F)ccc43)cc12 (stereo not drawn) [Example 20, 4-Amino-7-fluoro-N,3-dimethyl-N-(7-(trifluoromethyl)-2',3',5',6'-tetrahydrospiro[isochroman-1,4'-pyran]-4-yl)imidazo[1,5-a]quinoxaline-8-carboxamide]	920	1070	9.46	20.5	–
CN(C(=O)c1ccc2nc(N)c3cncn3c2c1)[C@@H]1COC2(CCC2)c2cc(N3CCNCC3)ncc21 [Example 21, (S)-4-amino-N-methyl-N-(7'-(piperazin-1-yl)-3'-,4'-dihydrospiro[cyclobutane-1,1'-pyrano[4,3-c]pyridine]-4'-yl)imidazo[1,5-a]quinoxaline-8-carboxamide]	> 20000	12500	–	> 1000	IC50 [3, 7]: > 1000 nM
CN(C(=O)c1ccc2nc(N)c3cncn3c2c1)C1COC2(CCC3(CC3)CC2)c2cc(C(F)(F)F)ccc21 (stereo not drawn) [Example 23]	4520	3970	51.5	66.1	–
CN(C(=O)c1ccc2nc(N)c3cncn3c2c1)C1COC2(CCCOC2)c2cc(C(F)(F)F)ccc21 (stereo not drawn) [Example 24, 4-Amino-N-methyl-N-(7-(trifluoromethyl)-5',6'-dihydro-2'H,4'H-spiro[isochroman-1,3'-pyran]-4-yl)imidazo[1,5-a]quinoxaline-8-carboxamide]	–	1470	–	9.54	–
CN(C(=O)c1ccc2nc(N)c3cncn3c2c1)C1COC2(CCC2)c2cc(N3CCOCC3)ncc21 (stereo not drawn) [Example 28, 4-Amino-N-methyl-N-(7'-morpholinyl-3',4'-dihydrospiro[cyclobutane-1,1'-pyrano[4,3-c]pyridine]-4'-yl)imidazo[1,5-a]quinoxaline-8-carboxamide]	> 10000	3880	–	88.5	IC50 [3, 7]: 110 nM
CN(C(=O)c1ccc2nc(N)c3cncn3c2c1)[C@@H]1COC2(CCC2)c2cc(N3CC[Si](C)(C)CC3)ncc21 [Example 34]	–	1430	40	–	IC50 (HCT-116 wild-type cells; Homo sapiens, 192 h): 5250 nM; IC50 ([2]; Homo sapiens, Lu-99, 144 h, read-out: IC50 (nM) Lu99 MTAP(-/-)Deleted): 41.5 nM
CN(C(=O)c1ccc2nc(N)c3cncn3c2c1)[C@@H]1COC2(CCC2)c2cc(-n3cc(C(F)(F)F)cn3)ncc21 [Example 45, (S)-4-amino-N-methyl-N-(7'-(4-(trifluoromethyl)-1H-pyrazol-1-yl)-3',4'-dihydrospiro[cyclobutane-1,1'-pyrano[4,3-c]pyridine]-4'-yl)imidazo[1,5-a]quinoxaline-8-carboxamide]	7050	4710	34.1	30.2	–
CN(C(=O)c1cc2c(cc1F)nc(N)c1cncn12)C1COC2(CCCOC2)c2cc(C(F)(F)F)ccc21 (stereo not drawn) [Example 50, 4-Amino-7-fluoro-N-methyl-N-(7-(trifluoromethyl)-5',6'-dihydro-2'H,4'H-spiro[isochroman-1,3'-pyran]-4-yl)imidazo[1,5-a]quinoxaline-8-carboxamide]	–	591	–	7.13	–
CN(C(=O)c1ccc2nc(N)c3cncn3c2c1)C1COC(C)(C)c2cc(C(F)(F)F)ncc21 (stereo not drawn) [Example 99, 4-Amino-N-(1,1-dimethyl-7-(trifluoromethyl)-3,4-dihydro-1H-pyrano[4,3-c]pyridin-4-yl)-N-methylimidazo[1,5-a]quinoxaline-8-carboxamide]	–	2970	–	152	–
